For 20 compounds, IC50 results are on record in EP3807270B1, “NOVEL HETEROARYL HETEROCYCLYL COMPOUNDS FOR THE TREATMENT OF AUTOIMMUNE DISEASE” (F. Hoffmann-La Roche AG, priority 2018, dated 2019).

The target of the assay is T1, human TLR8 (Homo sapiens, UniProt Q9NR97).
T1 construct: host or cells: HEK293 (HEK-Blue)
T1 sequence (Q9NR97 27-1041): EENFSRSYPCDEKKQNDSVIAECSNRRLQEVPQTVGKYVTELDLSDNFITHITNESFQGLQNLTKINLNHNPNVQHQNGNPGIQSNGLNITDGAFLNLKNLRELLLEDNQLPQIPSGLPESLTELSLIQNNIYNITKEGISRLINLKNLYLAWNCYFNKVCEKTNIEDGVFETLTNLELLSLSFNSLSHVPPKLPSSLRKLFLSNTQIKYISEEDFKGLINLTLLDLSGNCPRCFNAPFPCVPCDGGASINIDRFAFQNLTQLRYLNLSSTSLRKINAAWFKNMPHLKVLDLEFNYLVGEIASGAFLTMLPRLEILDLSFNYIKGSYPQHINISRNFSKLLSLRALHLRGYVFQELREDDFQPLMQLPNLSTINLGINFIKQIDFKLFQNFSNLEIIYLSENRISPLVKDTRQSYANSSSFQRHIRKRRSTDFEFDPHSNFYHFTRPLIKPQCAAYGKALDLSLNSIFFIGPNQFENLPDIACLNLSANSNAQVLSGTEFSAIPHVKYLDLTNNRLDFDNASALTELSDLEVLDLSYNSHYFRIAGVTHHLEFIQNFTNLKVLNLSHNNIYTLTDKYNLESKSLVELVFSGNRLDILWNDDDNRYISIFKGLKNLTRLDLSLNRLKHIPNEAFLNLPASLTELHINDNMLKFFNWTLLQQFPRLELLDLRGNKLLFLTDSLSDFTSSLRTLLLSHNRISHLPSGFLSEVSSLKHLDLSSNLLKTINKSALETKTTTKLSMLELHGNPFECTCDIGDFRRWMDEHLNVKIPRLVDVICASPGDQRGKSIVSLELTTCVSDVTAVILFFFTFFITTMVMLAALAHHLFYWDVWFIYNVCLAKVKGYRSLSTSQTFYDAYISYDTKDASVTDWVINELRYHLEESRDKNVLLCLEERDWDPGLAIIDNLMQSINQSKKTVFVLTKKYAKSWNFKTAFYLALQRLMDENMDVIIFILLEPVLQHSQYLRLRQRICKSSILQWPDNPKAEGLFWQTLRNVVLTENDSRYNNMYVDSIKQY
Kind of assay: HEK293-Blue-hTLR-8 cells assay (SEAP reporter, R848 stimulation). Conditions: HEK293-Blue-hTLR8 cells, R848, 20 hrs; read-out: HEK/hTLR8 IC50. Type of assay: cell-based. An excerpt:
A stable HEK293-Blue-hTLR-8 cell line was purchased from InvivoGen (Cat.#: hkb-htlr8, San Diego, California, USA). These cells were originally designed for studying the stimulation of human TLR8 by monitoring the activation of NF-κB. A SEAP (secreted embryonic alkaline phosphatase) reporter gene was placed under the control of the IFN-β minimal promoter fused to five NF-κB and AP-1-binding sites. The SEAP was induced by activating NF-κB and AP-1 via stimulating HEK-Blue hTLR8 cells with TLR8 ligands. Therefore, the reporter expression was declined by TLR8 antagonist under the stimulation of a ligand, such as R848, for incubation of 20 hrs. The cell culture supernatant SEAP reporter activity was determined using QUANTI-Blue™ kit (Cat.#: rep-qb1, Invivogen, San Diego, Ca, USA) at a wavelength of 640 nm, a detection medium that turns purple or blue in the presence of alkaline phosphatase.
HEK293-Blue-hTLR8 cells were incubated at a density of 250,000-450,000 cells/mL in a volume of 170 µL in a 96-well plate in Dulbecco's Modified Eagle's medium (DMEM) containing 4.5 g/L glucose, 50 U/mL penicillin, […], […], 2 mM L-glutamine, 10% (v/v) heat-inactivated fetal bovine serum with addition of 20 µL test compound in a serial dilution in the presence of final DMSO at 1% and 10 µL of 60uM R848 in above DMEM, perform incubation under 37 °C in a CO2 incubator for 20 hrs. Then 20 µL of the supernatant from each well was incubated with 180 µL Quanti-blue substrate solution at 37°C for 2 hrs and the absorbance was read at 620-655 nm using a spectrophotometer. The signaling pathway that TLR8 activation leads to downstream NF-κB activation has been widely accepted, and therefore similar reporter assay was modified for evaluating TLR8 antagonist.

Turning to `C[C@@H]1CN(c2ccc(C#N)c3ncccc23)C[C@H](CN2CCN(c3cnc4c(c3)CNCC4)CC2)O1` [Example 21, 5-[(2R,6S)-2-methyl-6-[[4-(5,6,7,8-tetrahydro-1,6-naphthyridin-3-yl)piperazin-1-yl]methyl]morpholin-4-yl]quinoline-8-carbonitrile], the IC50 is 0.009 µM.

With `C[C@@H]1CN(c2ccc(C#N)c3ncccc23)C[C@H](CN2CCN(c3ccc4c(c3)C(O)CNC4)CC2)O1` (stereo partly drawn) [Example 22, 5-[(2S,6R)-2-[[4-(4-hydroxy-1,2,3,4-tetrahydroisoquinolin-6-yl)piperazin-1-yl]methyl]-6-methyl-morpholin-4-yl]quinoline-8-carbonitrile], the IC50 stood at 0.019 µM. `C[C@@H]1CN(c2ccc(C#N)c3ncccc23)C[C@H](CN2CCN(c3cnc4c(c3)CCNC4)CC2)O1` [Example 23, 5-[(2R,6S)-2-methyl-6-[[4-(5,6,7,8-tetrahydro-1,7-naphthyridin-3-yl)piperazin-1-yl]methyl]morpholin-4-yl]quinoline-8-carbonitrile]: the IC50 is 0.011 µM.

Take `C[C@@H]1CN(c2ccc(C#N)c3ncccc23)C[C@H](CN2CCN(c3ccc4c(c3)CCNC4CO)CC2)O1` (stereo partly drawn) [Example 24, 5-[(2S,6R)-2-[[4-[1-(hydroxymethyl)-1,2,3,4-tetrahydroisoquinolin-6-yl]piperazin-1-yl]methyl]-6-methyl-morpholin-4-yl]quinoline-8-carbonitrile]: the IC50 worked out at 0.022 µM. With `C[C@@H]1CN(c2ccc(C#N)c3nccnc23)C[C@H](CN2CCN(c3cnc4c(c3)CNC4)CC2)O1` [Example 25, 8-[(2S,6R)-2-[[4-(6,7-dihydro-5H-pyrrolo[3,4-b]pyridin-3-yl)piperazin-1-yl]methyl]-6-methyl-morpholin-4-yl] quinoxaline-5-carbonitrile] the figure was 0.017 µM. Take `C[C@@H]1CN(c2ccc(C#N)n3ncc(F)c23)C[C@H](CN2CCN(c3cnc4c(c3)CNC4)CC2)O1` [Example 26, 4-[(2S,6R)-2-[[4-(6,7-dihydro-5H-pyrrolo[3,4-b]pyridin-3-yl)piperazin-1-yl]methyl]-6-methyl-morpholin-4-yl]-3-fluoro-pyrazolo[1,5-a]pyridine-7-carbonitrile]: the IC50 was 0.049 µM. Consider `CC1NCc2cc(N3CCN(C[C@H]4CN(c5ccc(C#N)c6ncccc56)C[C@@H](C)O4)CC3)ccc21` (stereo partly drawn) [Example 28, 5-[(2R,6S)-2-methyl-6-[[4-(1-methylisoindolin-5-yl)piperazin-1-yl]methyl]morpholin-4-yl]quinoline-8-carbonitrile], for which the IC50 was determined as 0.013 µM. With `C[C@@H]1CN(c2ccc(C#N)c3ncccc23)C[C@H](CN2CCN(c3ncc4c(n3)CCNC4)CC2)O1` [Example 29, 5-[(2R,6S)-2-methyl-6-[[4-(5,6,7,8-tetrahydropyrido[4,3-d]pyrimidin-2-yl)piperazin-1-yl]methyl]morpholin-4-yl]quinoline-8-carbonitrile] the figure was less than 0.003 µM; with `C[C@@H]1CN(c2ccc(C#N)c3ncccc23)C[C@H](CN2CCN(c3ccc4c(n3)CNC4)CC2)O1` [Example 30, 5-[(2S,6R)-2-[[4-(6,7-dihydro-5H-pyrrolo[3,4-b]pyridin-2-yl)piperazin-1-yl]methyl]-6-methyl-morpholin-4-yl] quinoline-8-carbonitrile], 0.007 µM; with `C[C@@H]1CN(c2ccc(C#N)c3ncccc23)C[C@H](CN2CCN(c3nc4c(s3)CNCC4)CC2)O1` [Example 31, 5-[(2R,6S)-2-methyl-6-[[4-(4,5,6,7-tetrahydrothiazolo[5,4-c]pyridin-2-yl)piperazin-1-yl]methyl]morpholin-4-yl]quinoline-8-carbonitrile], less than 0.003 µM.

`C[C@@H]1CN(c2ccc(C#N)c3ncccc23)C[C@H](CN2CCC(Nc3ncc4c(n3)CNC4)C2)O1` (stereo partly drawn) [Example 32, 5-[(2S,6R)-2-[[3-(6,7-dihydro-5H-pyrrolo[3,4-d]pyrimidin-2-ylamino)pyrrolidin-1-yl]methyl]-6-methyl-morpholin-4-yl]quinoline-8-carbonitrile]: the IC50 was found to be 0.107 µM. As for `C[C@@H]1CN(c2ccc(C#N)c3ncccc23)C[C@H](CN2CCCN(c3nc4c(s3)CNCC4)CC2)O1` [Example 33, 5-[(2R,6S)-2-methyl-6-[[4-(4,5,6,7-tetrahydrothiazolo[5,4-c]pyridin-2-yl)-1,4-diazepan-1-yl]methyl]morpholin-4-yl]quinoline-8-carbonitrile], the IC50 came out at 0.011 µM. Consider `C[C@@H]1CN(c2ccc(C#N)c3ncccc23)C[C@H](CN2CCN(c3ccc4c(n3)CCN(C)C4)CC2)O1` [Example 34, 5-[(2R,6S)-2-methyl-6-[[4-(6-methyl-7,8-dihydro-5H-1,6-naphthyridin-2-yl)piperazin-1-yl]methyl]morpholin-4-yl]quinoline-8-carbonitrile], for which the IC50 turned out to be 0.006 µM. With `C[C@@H]1CN(c2ccc(C#N)c3ncccc23)C[C@H](CN2CC3(CCN3c3ccc4c(n3)CCNC4)C2)O1` [Example 36, 5-[(2R,6S)-2-methyl-6-[[1-(5,6,7,8-tetrahydro-1,6-naphthyridin-2-yl)-1,6-diazaspiro[3.3]heptan-6-yl]methyl]morpholin-4-yl]quinoline-8-carbonitrile] the figure was 0.043 µM; with `C[C@@H]1CN(c2ccc(C#N)c3ncccc23)C[C@H](CN2CCC(Nc3ccc4c(c3)CNC4)C2)O1` (stereo partly drawn) [Example 38, 5-[(2S,6R)-2-[[3-(isoindolin-5-ylamino)pyrrolidin-1-yl]methyl]-6-methyl-morpholin-4-yl]quinoline-8-carbonitrile], 0.05 µM; with `C[C@@H]1CN(c2ccc(C#N)c3ncccc23)C[C@H](CN2CCCN(c3ncc4c(n3)CCNC4)CC2)O1` [Example 39, 5-[(2R,6S)-2-methyl-6-[[4-(5,6,7,8-tetrahydropyrido[4,3-d]pyrimidin-2-yl)-1,4-diazepan-1-yl]methyl]morpholin-4-yl]quinoline-8-carbonitrile], 0.012 µM. `C[C@@H]1CN(c2ccc(C#N)c3ncccc23)C[C@H](CN2CCN(c3cnc4c(n3)CNCC4)CC2)O1` [Example 40, 5-[(2R,6S)-2-methyl-6-[[4-(5,6,7,8-tetrahydropyrido[3,4-b]pyrazin-3-yl)piperazin-1-yl]methyl]morpholin-4-yl]quinoline-8-carbonitrile]: the IC50 stood at 0.004 µM. With `CC1NCc2ncc(N3CCN(C[C@H]4CN(c5ccc(C#N)c6ncccc56)C[C@@H](C)O4)CC3)cc21` (stereo partly drawn) [Example 41, 5-[(2R,6S)-2-methyl-6-[[4-(5-methyl-6,7-dihydro-5H-pyrrolo[3,4-b]pyridin-3-yl)piperazin-1-yl]methyl]morpholin-4-yl]quinoline-8-carbonitrile], the IC50 stood at 0.017 µM. Under `C[C@@H]1CN(c2ccc(C#N)c3ncccc23)C[C@H](CNC2CN(c3cnc4c(c3)CNC4)C2)O1` [Example 43, 5-[(2S,6R)-2-[[[1-(6,7-dihydro-5H-pyrrolo[3,4-b]pyridin-3-yl)azetidin-3-yl]amino]methyl]-6-methyl-morpholin-4-yl]quinoline-8-carbonitrile] stands 0.054 µM; under `C[C@@H]1CN(c2ccc(C#N)c3ncccc23)C[C@H](CN2CC3(C2)CN(c2ccc4c(c2)CCNC4)CCO3)O1` [Example 44, 5-[(2R,6S)-2-methyl-6-[[8-(1,2,3,4-tetrahydroisoquinolin-6-yl)-5-oxa-2,8-diazaspiro[3.5]nonan-2-yl]methyl]morpholin-4-yl]quinoline-8-carbonitrile], 0.004 µM.
